The values below come from patent US5874528A, “Binding peptides which interact with ligand growth factors of the epidermal growth factor receptor and erbB-2 receptor” (Georgetown University, priority 1994, dated 1999).

Assay [1] deals with p185^erbB-2. Nature of the assay: p185^erbB-2 binding competition assay with iodinated 4D5 on SK-Br-3 cells. Details: species or system human. The following applies: 1 nM iodinated 4D5, 3 hours at 4° C., read-out: B/T 50, displacement of the binding of iodinated 4D5 to SK-Br-3. How it is done: SK-Br-3 cells were placed in 48-well plates (Costar) in 5% fetal calf serum (FCS), IMEM (Biofluids).Cells were washed and incubated for 30 minutes at 37° C. with binding buffer [1 mg/ml BSA, 10 mM Hepes, 20 mM glutamine, DMEM-F12 pH 7.4]. Binding studies were performed for 3 hours at 4° C. On SK-Br-3 cells, 1 nM iodinated 4D5 was incubated with various concentrations of P1 (.largecircle.), P2 (.circle-solid.), P3 (Δ), P4 (.tangle-solidup.), RL1 (.quadrature.), and RL2 (.box-solid.) unlabeled peptides (A), or with unlabeled 4D5 (B). After incubation, cells were washed three times with binding buffer, and solubilized with 1% SDS. Unspecific binding of iodinated 4D5 was determined with an excess (100 nM) of unlabeled 4D5. Each group was assayed in triplicate. Experiments were performed three times with similar results.
To explore whether the RL2 peptide could specifically represent either a p185^erbB-2 or EGFR-extracellular binding site, we tested the aforementioned peptides in p185^erbB-2 or EGFR binding competition assays. Since iodinated gp30 was not available, p185^erbB-2 and EGFR competition assays were performed using iodinated monoclonal antibody 4D5 and iodinated EGF respectively. p185^erbB-2 monoclonal antibodies 4D5 and 7C2 were provided by Genentech, Inc., South San Francisco, Calif. […]

Assay [2] relates to EGFR. Nature of the assay: EGFR binding competition assay with iodinated EGF in MDA-MB-468 cells. The following applies: 1 nM iodinated EGF, peptide 0.6, 6, 60 μM. Details: species or system human. How it is done:
FIG. 6A: EGFR binding competition assays were performed in MDA-MB-468 cells. In brief, 150,000 cells/well were plated in 24 well plate. The binding assays were performed as described by Lonardo, et al., Mol. Cell. Biol, 2:992 (1990). In brief, 1 nM iodinated EGF (Amersham) was incubated with increasing concentrations of RL2 or RL2-K (0.6, 6, 60 μM, respectively). Increasing concentrations of unlabelled EGF were used as control, as shown in the insert. Each group was assayed in triplicate. Values are from three experiments and expressed as the mean percent of control cases.
To explore whether the RL2 peptide could specifically represent either a p185^erbB-2 or EGFR-extracellular binding site, we tested the aforementioned peptides in p185^erbB-2 or EGFR binding competition assays. Since iodinated gp30 was not available, p185^erbB-2 and EGFR competition assays were performed using iodinated monoclonal antibody 4D5 and iodinated EGF respectively. p185^erbB-2 monoclonal antibodies 4D5 and 7C2 were provided by Genentech, Inc., South San Francisco, Calif.
Among the peptides tested, only RL2 displaced in a dose-dependent manner (B/T 50: 8 μM) the binding of iodinated 4D5 to SK-Br-3 (FIG. 2).

The test system of the next assay is monoclonal antibody 4D5. Nature of the assay: binding of iodinated RL2 to a 4D5 affinity column. How it is done: First, RL2 peptide was iodinated using Iodogen, and purified with high-pressure liquid chromatography (HPLC); the specific activity was 26,000 cpm/μg peptide. […] 3×10^6 cpm of iodinated RL2 were loaded onto a protein A-sepharose column coupled with 4D5 (coupling percentage: 98.5%). Elutions were performed with increasing concentrations of MgCl2 from 1 to 5M (see Table 1). The specific elution marked as * on Table I was obtained at 2M MgCl2. The flow-through contained only background levels of radioactivity.

The subject of assay [3] is p185^erbB-2. Nature of the assay: in vitro tyrosine phosphorylation assay in MDA-MB-453 cells. The class given is cell-based, human. The following applies: 0.06 to 60 μM, gp30 50 pM. How it is done:
Cells were grown in 24-well plates (Costar) to 70% confluence in 5% FCS IMEM and serum-starved 24 hours prior to assays. Cells were then treated for 20 minutes at 37° C. with RL1 or RL2 with and without gp30 (at concentrations given below), as indicated on Figure panels, washed once with serum-free IMEM, and lysed at 4° C. for 10 minutes with a lysis buffer containing SDS (Emprotech). Total cellular proteins were subjected to 4-20% SDS-PAGE, and blotted onto Hybond-ECL membranes (Amersham). Membranes were blocked with tris-buffered saline [5% BSA, 0.5% Tween 20] and probed with 1 μg/ml phosphotyrosine monoclonal antibody (UBI) in tris-buffered saline [0.5% BSA, 0.5% Tween 20]. Immune complexes were detected using the ECL-western blotting kit (Amersham) as indicated by the manufacturer. […] The values obtained were corrected for background and expressed as control percentages. […]
(§1) To further characterize RL2 blocking effects, we analyzed the homologous peptides for their ability to prevent the tyrosine phosphorylation induced by gp30 either in p185^erbB-2 or EGFR, or both of them. […] (Densitometric analyses of autoradiograms were performed using a SAMBA 4000 system (Dynatech Laboratories). The values obtained were corrected for background and expressed as control percentages. Differences were considered significant when effects more than 10% versus controls occurred.)

Assay [4] relates to EGFR. Nature of the assay: in vitro tyrosine phosphorylation assay in MDA-MB-468 cells. In kind it is cell-based, human. The procedure: Cells were grown in 24-well plates (Costar) to 70% confluence in 5% FCS IMEM and serum-starved 24 hours prior to assays. Cells were then treated for 20 minutes at 37° C. with RL1 or RL2 with and without gp30 (at concentrations given below), as indicated on Figure panels, washed once with serum-free IMEM, and lysed at 4° C. for 10 minutes with a lysis buffer containing SDS (Emprotech). Total cellular proteins were subjected to 4-20% SDS-PAGE, and blotted onto Hybond-ECL membranes (Amersham). Membranes were blocked with tris-buffered saline [5% BSA, 0.5% Tween 20] and probed with 1 μg/ml phosphotyrosine monoclonal antibody (UBI) in tris-buffered saline [0.5% BSA, 0.5% Tween 20]. Immune complexes were detected using the ECL-western blotting kit (Amersham) as indicated by the manufacturer. Densitometric analyses were performed using a SAMBA 4000 system (Dynatech Laboratories). The values obtained were corrected for background and expressed as control percentages. Differences were considered significant when effects more than 10% versus controls occurred.
Upper panels correspond to MDA-MB-453 cells. […] Lower panels correspond to MDA-MB-468 cells. […] Lanes 1 to 4 correspond to increasing concentrations of RL2 (left panels), or RL1 (right panels) peptides. 1: 0.06 μM; 2: 0.6 μM; 3: 6 μM; 4: 60 μM. Experiments were repeated four times with similar results.
FIG. 6B: EGFR Tyrosine Phosphorylation assays were performed using MDA-MB-468 cells, as described for FIG. 3. […]
as §1

For assay [5], the system named is p185^erbB-2. Nature of the assay: in vivo phosphorylation assay and phosphoaminoacid analysis in MDA-MB-453 cells. In kind it is cell-based, human. How it is done:
MDA-MB-453 cells were grown in 35 mm dishes (Costar) to 70% confluence in 5% FCS IMEM. Cells were washed twice with PO4 free DMEM (Gibco), and then incubated for 3 hours at 37° C. with [^32 P]-orthophosphate (Amersham; 1.0 mCi/ml in each dish). Cells were then treated for 10 minutes at 37° C. with samples: control, 60 μM RL2, 50×10^-12 M gp30, or 50×10^-12 M gp30 plus 60 μM RL2. All samples were preincubated 30 minutes at 37° C. Cells were washed twice with PBS, and lysed at 4° C. for 10 minutes with a lysis buffer containing 1% Triton X-100, and kinase, protease and phosphatase inhibitors as described (Frackelton, et al., J. Biol. Chem., 259:7909 (1984)). After centrifugation at 10,000× g for 15 minutes at 4° C., tyrosinephosphorylated proteins were isolated from supernatants by microbath affinity chromatography on the phosphotyrosine monoclonal antibody 1G2 (provided by Dr. A. R. Frakelton) as previously described (Frackelton, et al., J. Biol Chem., 259:7909 (1984); and Beitz, et al., Proc. Natl. Acad. Sci. USA, 88:2021 (1991)), eluted with 1 mM phenylphosphate in PBS pH 7.4, and purified further by immunoprecipitation with p185^erbB-2 monoclonal antibody Ab-3 (Oncogene Science) adsorbed on protein A-Sepharose. […]

For the next assay, the system named is MDA-MB-453 cells. Nature of the assay: soft agar colony formation (anchorage-independent growth) of MDA-MB-453 cells. The class given is cell-based, human. To be noted: for Number of Colonies (± SD): MDA-MB 453 cells, untreated 942 ± 120. The procedure:
(§2) MDA-MB-453 (A), or SK-Br-3 cells (B) were plated in 35 mm tissue culture dishes (Costar). A bottom layer of 1 ml IMEM containing 0.6% Bacto-agar (Difco), 2 mM glutamine, and 10% FCS was prepared. Top layers contained 2×10^4 cells and samples in 0.4% Bacto-agar, 10% FCS IMEM. Samples were sterilized prior to plating by filtration using 0.22 μM Millex CU millipore filter. The legend of peptide symbols in A is identical to the one in FIG. 2. The following concentrations were used in B: 5×10^-12 M gp30, 2×10^-12 M p75, 60 μM RL2, and 127 nM p185^erbB-2 extracellular domain (ECD) as positive control. Experiments were carried out in FCS that had been tested for optimal cloning efficiency. Cells were incubated 7-9 days in humidified 5% CO2 atmosphere at 37° C. Colonies larger than 60-μm were counted using a Baush and Lomb Stem Cell Colony Counter (Artex Systems Corp.). Each group was assayed in triplicate. Experiments were performed three times.
*Cells were treated as indicated. The monoclonal antibody 4D5 (kindly
provided by Genentech, CA) and the RL2 peptide were used as positive
controls. Soft agar cloning assays were carried out as previously
described (Lupu, et al., Proc. Natl. Acad. Sci. USA, 87:2287-91, 1992).
Colonies larger than 69 μM were counted using a Baush & Lomb Stem Cell
Colony Counter (Artex Systems Corp.). Each group was assayed in
triplicate. Experiments were performed three times with similar results.

The next assay relates to SK-Br-3 cells. Nature of the assay: soft agar colony formation of SK-Br-3 cells with gp30 or p75. The class given is cell-based, human. The following applies: 5×10^-12 M gp30 or 2×10^-12 M p75; 60 μM RL2, 127 nM ECD. The procedure:
as §2
To illustrate RL2 antiproliferative effects as a blocking action on the p185^erbB-2 ligand-mediated effects, we tested this peptide and the ECD of p185^erbB-2 on the anchorage-independent growth of SK-Br-3 cells in the presence of stimulating concentrations of either gp30 or p75 proteins, the latter known to interact exclusively with p185^erbB-2 (Lupu, et al., Proc. Natl. Acad. Sci. USA, 89:2287-91 (1992)). […]

Another assay deals with MDA-MB-468 cells. Nature of the assay: soft agar colony formation (anchorage-independent growth) of MDA-MB-468 cells. In kind it is cell-based, human. The following applies: 10 nM, positive control.

Ends that are not written are not given here.

For LGLRSLRE [RL2], the IC50 with p185^erbB-2 [1] was determined as 8 µM. For the same substance, in the assay with EGFR [2], the “effect on binding of iodinated EGF to the EGFR” value is given as “absence of an effect”. Further, the “radioactivity, flow through” value in the assay with monoclonal antibody 4D5 (input 3 × 10^6 cpm iodinated RL2, flow through) is reported as 2.6 × 10^5 cpm. Also, the “radioactivity, wash” value with monoclonal antibody 4D5 (input 3 × 10^6 cpm iodinated RL2, wash) is 2.54 × 10^5 cpm. The “binding of iodinated peptide to 4D5-affinity column” value in the assay with monoclonal antibody 4D5 (protein A-sepharose column coupled with 4D5) is recorded as “specifically bind to a 4D5-affinity column”. Besides, the “inhibition of gp30-stimulated level of p185^erbB-2 tyrosine phosphorylation” value with p185^erbB-2 [3] is 80%. The “inhibition of gp30-stimulated level of EGFR tyrosine phosphorylation” value in the assay on EGFR [4] (60 μM, gp30 50 pM) is “not the gp30-stimulated level”. In the assay on EGFR [4] (60 μM, no gp30), the “inhibition of baseline level of EGFR tyrosine phosphorylation” value stood at 71%. Also, in the assay on EGFR [4] (EGF 1.68 nM, peptide 0.6, 6 and 60 μM), the “effect on EGF-induced tyrosine phosphorylation of EGFR” value was “no effect”. Further, the “decrease of p185^erbB-2 tyrosine level of phosphorylation, presence of gp30-stimulation” value in the assay with p185^erbB-2 [5] (60 μM RL2, 50×10^-12 M gp30) is given as 26%. Further, the “decrease of p185^erbB-2 tyrosine level of phosphorylation, absence of gp30-stimulation” value in the assay with p185^erbB-2 [5] (60 μM RL2, [32P]-orthophosphate labelling) turned out to be 50%. The “inhibition of MDA-MB-453 cell anchorage-independent growth” value with MDA-MB-453 cells (6-60 μM) amounted to 72%. Further, the “Number of Colonies (± SD)” value is given as 245 ± 46 with MDA-MB-453 cells (6 μM) and 123 ± 21 in the assay on MDA-MB-453 cells (60 μM). Moreover, the “inhibiting effects on anchorage-independent growth of SK-Br-3 cells in presence of gp30 or p75” value in the assay with SK-Br-3 cells was “fully reversed”.
With “p185^erbB-2 ECD: p185^erbB-2 extracellular domain (ECD), positive control”, the “inhibiting effects on anchorage-independent growth of SK-Br-3 cells in presence of gp30 or p75” value in the assay on SK-Br-3 cells was “fully reversed”.
Take “EGF: epidermal growth factor, positive control”: the “response of MDA-MB-468 cell anchorage-independent growth” value with MDA-MB-468 cells is on record as “did respond”.
